Source: publication PMC4844702, “Selective inhibition of the kinase DYRK1A by targeting its folding process” (Nature Communications, 2016)

Experiments:
Assay in all cases: Kinase panel (Carna)
Format in all cases: biochemical
[1] = molecular target: T1, PDGFRα (Homo sapiens, UniProt P16234)
T1 construct: purchased Carna Biosciences
From the text: (§1) Detailed information on the assay conditions is available on the website of Carna Biosciences (http://www.carnabio.com).

[2] = molecular target: T2, SLK (Homo sapiens, UniProt Q9H2G2)
T2 construct: purchased Carna Biosciences
From the text: as §1

[3] = molecular target: T3, FES (Homo sapiens, UniProt P07332)
T3 construct: purchased Carna Biosciences
From the text: as §1

[4] = molecular target: T4, AXL (Homo sapiens, UniProt P30530)
T4 construct: purchased Carna Biosciences
From the text: as §1

[5] = molecular target: T5, MARK4 (Homo sapiens, UniProt Q96L34); conditions: 10 µM FINDY
T5 construct: purchased Carna Biosciences
From the text: as §1

[6] = molecular target: T6, MAP2K4_Cascade (Homo sapiens, UniProt P45985)
T6 construct: purchased Carna Biosciences

[7] = molecular target: T7, RAF1_Cascade (Homo sapiens, UniProt P04049)
T7 construct: purchased Carna Biosciences

[8] = molecular target: T8, MAP3K3_Cascade (Homo sapiens, UniProt Q99759)
T8 construct: purchased Carna Biosciences
From the text: as §1

[9] = molecular target: T9, CDK3/CycE1 (Homo sapiens, UniProt Q00526)
T9 construct: purchased Carna Biosciences
From the text: as §1

[10] = molecular target: T10, JNK1 (Homo sapiens, UniProt P45983)
T10 construct: purchased Carna Biosciences
From the text: as §1

[11] = molecular target: T11, CSK (Homo sapiens, UniProt P41240)
T11 construct: purchased Carna Biosciences
From the text: as §1

[12] = molecular target: T12, PKCι (Homo sapiens, UniProt P41743)
T12 construct: purchased Carna Biosciences
From the text: as §1

[13] = molecular target: T13, MAP2K7_Cascade (Homo sapiens, UniProt O14733)
T13 construct: purchased Carna Biosciences
From the text: as §1

[14] = molecular target: T14, PKCζ (Homo sapiens, UniProt Q05513)
T14 construct: purchased Carna Biosciences
From the text: as §1

[15] = molecular target: T15, CaMK2β (Homo sapiens, UniProt Q13554)
T15 construct: purchased Carna Biosciences

[16] = molecular target: T16, PKD3 (Homo sapiens, UniProt O94806)
T16 construct: purchased Carna Biosciences

[17] = molecular target: T17, MARK2 (Homo sapiens, UniProt Q7KZI7)
T17 construct: purchased Carna Biosciences
From the text: as §1

[18] = molecular target: T18, MER (Homo sapiens, UniProt Q12866)
T18 construct: purchased Carna Biosciences
From the text: as §1

[19] = molecular target: T19, FLT1 (Homo sapiens, UniProt P17948)
T19 construct: purchased Carna Biosciences
From the text: as §1

[20] = molecular target: T20, TRKC (Homo sapiens, UniProt Q16288)
T20 construct: purchased Carna Biosciences
From the text: as §1

[21] = molecular target: T21, MST3 (Homo sapiens, UniProt Q9Y6E0)
T21 construct: purchased Carna Biosciences
From the text: as §1

[22] = molecular target: T22, LYNa (Homo sapiens, UniProt P07948)
T22 construct: purchased Carna Biosciences
From the text: as §1

[23] = molecular target: T23, EPHA5 (Homo sapiens, UniProt P54756)
T23 construct: purchased Carna Biosciences

[24] = molecular target: T24, TBK1 (Homo sapiens, UniProt Q9UHD2)
T24 construct: purchased Carna Biosciences
From the text: as §1

[25] = molecular target: T25, MAP2K5_Cascade (Homo sapiens, UniProt Q13163)
T25 construct: purchased Carna Biosciences

[26] = molecular target: T26, SRPK2 (Homo sapiens, UniProt P78362)
T26 construct: purchased Carna Biosciences
From the text: as §1

[27] = molecular target: T27, Haspin (Homo sapiens, UniProt Q8TF76)
T27 construct: purchased Carna Biosciences

[28] = molecular target: T28, LCK (Homo sapiens, UniProt P06239)
T28 construct: purchased Carna Biosciences
From the text: as §1

[29] = molecular target: T29, MUSK (Homo sapiens, UniProt O15146)
T29 construct: purchased Carna Biosciences
From the text: as §1

[30] = molecular target: T30, HIPK4 (Homo sapiens, UniProt Q8NE63)
T30 construct: purchased Carna Biosciences
From the text: as §1

[31] = molecular target: T31, MLK3_Cascade (Homo sapiens, UniProt Q16584)
T31 construct: purchased Carna Biosciences
From the text: as §1

[32] = molecular target: T32, CK1γ2 (Homo sapiens, UniProt P78368)
T32 construct: purchased Carna Biosciences

[33] = molecular target: T33, MST4 (Homo sapiens, UniProt Q9P289)
T33 construct: purchased Carna Biosciences
From the text: as §1

[34] = molecular target: T34, EPHA4 (Homo sapiens, UniProt P54764)
T34 construct: purchased Carna Biosciences

[35] = molecular target: T35, p70S6K (Homo sapiens, UniProt P23443)
T35 construct: purchased Carna Biosciences
From the text: as §1

[36] = molecular target: T36, PAK6 (Homo sapiens, UniProt Q9NQU5)
T36 construct: purchased Carna Biosciences
From the text: as §1

[37] = molecular target: T37, NEK6 (Homo sapiens, UniProt Q9HC98)
T37 construct: purchased Carna Biosciences

[38] = molecular target: T38, NEK9 (Homo sapiens, UniProt Q8TD19)
T38 construct: purchased Carna Biosciences

[39] = molecular target: T39, TSSK2 (Homo sapiens, UniProt Q96PF2)
T39 construct: purchased Carna Biosciences
From the text: as §1

[40] = molecular target: T40, MAP2K1_Cascade (Homo sapiens, UniProt Q02750)
T40 construct: purchased Carna Biosciences

[41] = molecular target: T41, FGFR2 (Homo sapiens, UniProt P21802)
T41 construct: purchased Carna Biosciences

[42] = molecular target: T42, PAK4 (Homo sapiens, UniProt O96013)
T42 construct: purchased Carna Biosciences
From the text: as §1

[43] = molecular target: T43, skMLCK (Homo sapiens, UniProt Q9H1R3)
T43 construct: purchased Carna Biosciences

[44] = molecular target: T44, PKCε (Homo sapiens, UniProt Q02156)
T44 construct: purchased Carna Biosciences
From the text: as §1

T25 sequence (Q13163 whole entry): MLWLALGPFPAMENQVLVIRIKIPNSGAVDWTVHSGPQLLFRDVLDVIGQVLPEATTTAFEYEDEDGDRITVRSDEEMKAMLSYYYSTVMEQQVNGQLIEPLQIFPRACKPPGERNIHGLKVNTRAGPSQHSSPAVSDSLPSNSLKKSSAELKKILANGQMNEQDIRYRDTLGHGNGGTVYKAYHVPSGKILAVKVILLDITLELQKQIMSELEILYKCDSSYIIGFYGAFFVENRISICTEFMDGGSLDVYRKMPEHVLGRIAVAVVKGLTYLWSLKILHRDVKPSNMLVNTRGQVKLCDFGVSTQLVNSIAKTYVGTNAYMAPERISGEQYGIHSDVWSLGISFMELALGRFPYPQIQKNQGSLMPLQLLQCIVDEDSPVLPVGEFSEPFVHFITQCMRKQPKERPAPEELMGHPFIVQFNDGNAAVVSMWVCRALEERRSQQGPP
T23 sequence (P54756 25-1037): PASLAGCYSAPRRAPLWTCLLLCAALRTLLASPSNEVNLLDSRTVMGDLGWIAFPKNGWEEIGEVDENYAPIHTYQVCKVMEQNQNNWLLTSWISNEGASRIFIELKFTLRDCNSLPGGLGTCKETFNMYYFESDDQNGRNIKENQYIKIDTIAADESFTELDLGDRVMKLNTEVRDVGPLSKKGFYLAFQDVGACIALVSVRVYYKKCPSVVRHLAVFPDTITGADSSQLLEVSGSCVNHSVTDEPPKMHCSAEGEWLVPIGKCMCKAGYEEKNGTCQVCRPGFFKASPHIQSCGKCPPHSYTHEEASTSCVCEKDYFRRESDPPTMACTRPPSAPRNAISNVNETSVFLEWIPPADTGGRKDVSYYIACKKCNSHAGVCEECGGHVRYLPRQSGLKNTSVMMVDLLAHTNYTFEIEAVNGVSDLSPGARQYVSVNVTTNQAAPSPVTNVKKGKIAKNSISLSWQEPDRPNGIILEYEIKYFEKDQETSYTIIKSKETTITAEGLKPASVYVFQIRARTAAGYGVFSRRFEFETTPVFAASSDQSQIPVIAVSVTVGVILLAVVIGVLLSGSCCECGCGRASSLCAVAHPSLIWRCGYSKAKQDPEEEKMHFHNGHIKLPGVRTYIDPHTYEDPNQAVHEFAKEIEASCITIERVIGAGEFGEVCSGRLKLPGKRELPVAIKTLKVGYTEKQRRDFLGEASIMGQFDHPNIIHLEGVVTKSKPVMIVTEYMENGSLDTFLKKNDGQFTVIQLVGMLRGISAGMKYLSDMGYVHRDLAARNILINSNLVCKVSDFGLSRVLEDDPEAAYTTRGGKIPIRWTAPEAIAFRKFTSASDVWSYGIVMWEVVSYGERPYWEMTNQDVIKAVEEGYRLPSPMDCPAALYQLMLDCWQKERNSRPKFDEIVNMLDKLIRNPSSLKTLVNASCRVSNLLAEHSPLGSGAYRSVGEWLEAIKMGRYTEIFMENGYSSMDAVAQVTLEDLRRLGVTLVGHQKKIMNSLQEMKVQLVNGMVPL
T22 sequence (P07948 whole entry): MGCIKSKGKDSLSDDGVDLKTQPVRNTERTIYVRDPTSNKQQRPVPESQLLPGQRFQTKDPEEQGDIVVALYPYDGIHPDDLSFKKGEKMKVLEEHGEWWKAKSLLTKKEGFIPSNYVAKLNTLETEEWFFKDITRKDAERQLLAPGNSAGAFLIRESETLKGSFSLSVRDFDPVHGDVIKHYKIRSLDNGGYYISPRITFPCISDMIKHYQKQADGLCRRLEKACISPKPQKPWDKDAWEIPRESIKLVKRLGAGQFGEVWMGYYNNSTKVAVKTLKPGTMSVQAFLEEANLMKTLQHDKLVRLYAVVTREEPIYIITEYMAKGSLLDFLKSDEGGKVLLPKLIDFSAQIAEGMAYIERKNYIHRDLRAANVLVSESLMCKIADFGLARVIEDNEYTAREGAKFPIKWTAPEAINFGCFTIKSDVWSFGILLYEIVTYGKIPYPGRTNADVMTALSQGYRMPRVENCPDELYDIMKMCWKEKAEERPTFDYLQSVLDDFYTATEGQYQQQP
T19 sequence (P17948 27-1338): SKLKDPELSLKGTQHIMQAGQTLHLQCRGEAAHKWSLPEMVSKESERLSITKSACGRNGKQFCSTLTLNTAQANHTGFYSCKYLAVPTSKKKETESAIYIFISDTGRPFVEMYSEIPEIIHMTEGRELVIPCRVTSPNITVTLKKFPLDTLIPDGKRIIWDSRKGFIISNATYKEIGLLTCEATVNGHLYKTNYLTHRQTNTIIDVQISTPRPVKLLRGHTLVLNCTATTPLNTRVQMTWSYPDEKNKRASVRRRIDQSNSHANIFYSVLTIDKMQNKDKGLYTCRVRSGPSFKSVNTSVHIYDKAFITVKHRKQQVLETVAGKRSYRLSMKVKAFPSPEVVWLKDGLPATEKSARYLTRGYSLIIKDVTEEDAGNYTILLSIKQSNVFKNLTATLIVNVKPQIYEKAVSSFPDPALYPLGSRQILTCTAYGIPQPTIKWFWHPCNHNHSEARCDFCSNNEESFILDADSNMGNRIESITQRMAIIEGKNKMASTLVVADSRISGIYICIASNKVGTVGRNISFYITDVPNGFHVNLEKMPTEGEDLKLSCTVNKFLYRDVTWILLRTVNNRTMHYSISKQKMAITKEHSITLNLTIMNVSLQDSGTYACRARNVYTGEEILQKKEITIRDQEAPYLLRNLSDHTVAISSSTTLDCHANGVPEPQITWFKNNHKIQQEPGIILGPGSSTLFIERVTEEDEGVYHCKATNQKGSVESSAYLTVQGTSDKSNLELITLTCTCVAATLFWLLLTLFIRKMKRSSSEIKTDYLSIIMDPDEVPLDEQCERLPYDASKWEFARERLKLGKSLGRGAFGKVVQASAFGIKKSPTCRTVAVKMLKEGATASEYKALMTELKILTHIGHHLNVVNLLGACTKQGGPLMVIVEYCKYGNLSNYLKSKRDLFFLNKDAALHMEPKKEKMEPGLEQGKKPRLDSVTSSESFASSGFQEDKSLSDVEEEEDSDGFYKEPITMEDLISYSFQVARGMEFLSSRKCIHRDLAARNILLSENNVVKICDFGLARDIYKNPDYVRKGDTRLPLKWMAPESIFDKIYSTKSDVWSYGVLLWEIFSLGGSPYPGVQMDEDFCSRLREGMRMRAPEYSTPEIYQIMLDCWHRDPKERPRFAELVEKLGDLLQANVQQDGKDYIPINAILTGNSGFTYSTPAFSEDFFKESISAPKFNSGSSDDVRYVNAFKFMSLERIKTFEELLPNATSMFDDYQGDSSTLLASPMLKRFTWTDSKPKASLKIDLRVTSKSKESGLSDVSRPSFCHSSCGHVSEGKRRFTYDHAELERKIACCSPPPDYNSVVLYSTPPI
T30 sequence (Q8NE63 whole entry): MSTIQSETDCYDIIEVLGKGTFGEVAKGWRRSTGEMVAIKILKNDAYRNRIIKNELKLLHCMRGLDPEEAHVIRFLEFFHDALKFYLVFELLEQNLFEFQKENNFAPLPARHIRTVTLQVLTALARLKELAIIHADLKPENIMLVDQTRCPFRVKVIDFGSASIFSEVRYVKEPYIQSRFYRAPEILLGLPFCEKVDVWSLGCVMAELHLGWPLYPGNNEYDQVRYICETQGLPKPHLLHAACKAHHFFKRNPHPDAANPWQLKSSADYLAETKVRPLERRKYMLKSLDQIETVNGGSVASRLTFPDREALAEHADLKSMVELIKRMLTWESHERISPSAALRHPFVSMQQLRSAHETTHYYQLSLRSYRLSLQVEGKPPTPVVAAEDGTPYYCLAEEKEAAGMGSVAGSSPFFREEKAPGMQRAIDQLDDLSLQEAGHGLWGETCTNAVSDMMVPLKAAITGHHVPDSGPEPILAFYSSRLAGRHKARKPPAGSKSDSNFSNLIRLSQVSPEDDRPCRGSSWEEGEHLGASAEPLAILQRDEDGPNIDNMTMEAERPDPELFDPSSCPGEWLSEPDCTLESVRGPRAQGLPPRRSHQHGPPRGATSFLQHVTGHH
T37 sequence (Q9HC98 whole entry): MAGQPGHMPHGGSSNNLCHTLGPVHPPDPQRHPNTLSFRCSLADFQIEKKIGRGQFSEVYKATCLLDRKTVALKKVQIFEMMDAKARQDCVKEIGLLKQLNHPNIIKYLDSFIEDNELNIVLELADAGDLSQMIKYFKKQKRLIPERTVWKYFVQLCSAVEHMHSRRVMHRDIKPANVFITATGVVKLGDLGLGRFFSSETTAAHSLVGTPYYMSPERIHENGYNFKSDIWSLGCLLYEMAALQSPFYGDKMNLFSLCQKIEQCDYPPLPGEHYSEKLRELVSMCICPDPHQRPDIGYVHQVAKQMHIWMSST
T29 sequence (O15146 24-869): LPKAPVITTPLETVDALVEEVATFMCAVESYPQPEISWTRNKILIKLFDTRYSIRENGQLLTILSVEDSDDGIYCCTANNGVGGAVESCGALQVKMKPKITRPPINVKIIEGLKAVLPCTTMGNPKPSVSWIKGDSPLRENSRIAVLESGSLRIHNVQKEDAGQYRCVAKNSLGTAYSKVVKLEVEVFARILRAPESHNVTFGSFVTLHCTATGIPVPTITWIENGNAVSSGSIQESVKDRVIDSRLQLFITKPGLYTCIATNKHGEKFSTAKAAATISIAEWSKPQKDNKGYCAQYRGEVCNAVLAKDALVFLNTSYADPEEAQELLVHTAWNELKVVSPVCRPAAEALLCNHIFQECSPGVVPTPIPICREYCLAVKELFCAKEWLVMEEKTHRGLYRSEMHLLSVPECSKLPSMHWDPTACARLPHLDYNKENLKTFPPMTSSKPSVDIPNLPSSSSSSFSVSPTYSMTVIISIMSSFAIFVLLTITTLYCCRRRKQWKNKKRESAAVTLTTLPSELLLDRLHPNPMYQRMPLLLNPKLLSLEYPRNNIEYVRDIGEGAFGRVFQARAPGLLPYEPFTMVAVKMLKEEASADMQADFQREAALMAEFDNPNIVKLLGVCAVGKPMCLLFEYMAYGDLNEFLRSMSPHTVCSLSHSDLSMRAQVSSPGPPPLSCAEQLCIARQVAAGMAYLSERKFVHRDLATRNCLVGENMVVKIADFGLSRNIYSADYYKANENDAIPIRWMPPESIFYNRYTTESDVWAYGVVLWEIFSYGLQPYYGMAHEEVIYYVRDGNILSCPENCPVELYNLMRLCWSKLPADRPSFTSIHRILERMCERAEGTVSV

## COc1ccc(/C=C2\SC(=S)NC2=O)cc1C#C[Si](C)(C)C [FINDY]
[1]
  inhibition at 10 µM: 14.8%
[2]
  inhibition at 10 µM: -35%
[3]
  inhibition at 10 µM: 1.6%
[4]
  inhibition at 10 µM: 6.7%
[5]
  inhibition at 10 µM: 79.8%
[6]
  inhibition at 10 µM: 6.4%
[7]
  inhibition at 10 µM: 50.9%
[8]
  inhibition at 10 µM: 3.3%
[9]
  inhibition at 10 µM: 20.7%
[10]
  inhibition at 10 µM: 1.5%
[11]
  inhibition at 10 µM: 6.7%
[12]
  inhibition at 10 µM: -4.3%
[13]
  inhibition at 10 µM: 14.4%
[14]
  inhibition at 10 µM: -6.1%
[15]
  inhibition at 10 µM: -3.3%
[16]
  inhibition at 10 µM: -13.4%
[17]
  inhibition at 10 µM: 60.8%
[18]
  inhibition at 10 µM: 3.4%
[19]
  inhibition at 10 µM: 6.6%
[20]
  inhibition at 10 µM: 11.8%
[21]
  inhibition at 10 µM: 6.4%
[22]
  inhibition at 10 µM: 4%
[23]
  inhibition at 10 µM: 18.4%
[24]
  inhibition at 10 µM: 4%
[25]
  inhibition at 10 µM: -0.1%
[26]
  inhibition at 10 µM: -5%
[27]
  inhibition at 10 µM: 30.3%
[28]
  inhibition at 10 µM: 7.2%
[29]
  inhibition at 10 µM: 4.1%
[30]
  inhibition at 10 µM: 16.6%
[31]
  inhibition at 10 µM: 40.5%
[32]
  inhibition at 10 µM: 27.7%
[33]
  inhibition at 10 µM: 16.7%
[34]
  inhibition at 10 µM: 16.3%
[35]
  inhibition at 10 µM: 7.4%
[36]
  inhibition at 10 µM: -145%
[37]
  inhibition at 10 µM: 23.6%
[38]
  inhibition at 10 µM: -3.3%
[39]
  inhibition at 10 µM: 39.9%
[40]
  inhibition at 10 µM: 44.2%
[41]
  inhibition at 10 µM: 19.7%
[42]
  inhibition at 10 µM: -20.1%
[43]
  inhibition at 10 µM: 2%
[44]
  inhibition at 10 µM: -6.6%
